Experimental data reported in ChEMBL document CHEMBL1201862, “PubChem BioAssay data set” (2004).
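Results reflect a 48-hour exposure of cells in 96-well plates to compound at five concentrations. GI50 is the concentration that inhibits growth by half.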 Activity calls are given as the source filed them. No stated cut-off is given here; in the data, active = GI50 up to about 1.1 µM and inactive = higher.

Columns and labels:
Test in all cases: growth of human tumour cells (NCI), 48 h
786-0 = test system: 786-0
A498 = test system: A498
A549 = test system: A549
ACHN = test system: ACHN
CAKI-1 = test system: CAKI-1
CCRF-CEM = test system: CCRF-CEM
DLD-1 = test system: DLD-1
DMS-114 = test system: DMS-114
DMS-273 = test system: DMS-273
EKVX = test system: EKVX
HCC 2998 = test system: HCC 2998
HCT-116 = test system: HCT-116
HCT-15 = test system: HCT-15
HL-60 = test system: HL-60
HOP-18 = test system: HOP-18
HOP-92 = test system: HOP-92
HT-29 = test system: HT-29
K562 = test system: K562
KM-20L2 = test system: KM-20L2
LOX IMVI = test system: LOX IMVI
LXFL 529 = test system: LXFL 529
M14 = test system: M14
M19-MEL = test system: M19-MEL
MOLT-4 = test system: MOLT-4
Malme-3M = test system: Malme-3M
NCI-H226 = test system: NCI-H226
NCI-H23 = test system: NCI-H23
NCI-H460 = test system: NCI-H460
NCI-H522 = test system: NCI-H522
OVCAR-3 = test system: OVCAR-3
OVCAR-4 = test system: OVCAR-4
OVCAR-5 = test system: OVCAR-5
OVCAR-8 = test system: OVCAR-8
RPMI-8226 = test system: RPMI-8226
RXF 393 = test system: RXF 393
RXF 631 = test system: RXF 631
SF-295 = test system: SF-295
SF-539 = test system: SF-539
SK-MEL-28 = test system: SK-MEL-28
SK-MEL-2 = test system: SK-MEL-2
SK-MEL-5 = test system: SK-MEL-5
SN12C = test system: SN12C
SNB-19 = test system: SNB-19
SNB-75 = test system: SNB-75
SNB-78 = test system: SNB-78
SR = test system: SR
SW-620 = test system: SW-620
TK-10 = test system: TK-10
U-251 = test system: U-251
UACC-257 = test system: UACC-257
UACC-62 = test system: UACC-62
UO-31 = test system: UO-31
COLO 205 = test system: COLO 205
HOP-62 = test system: HOP-62
IGROV-1 = test system: IGROV-1
KM12 = test system: KM12
SF-268 = test system: SF-268
SK-OV-3 = test system: SK-OV-3
XF498 = test system: XF498

CN(c1ccccc1)c1c(Cl)c(=O)oc2c1ccc1occc12
GI50 (786-0): > 100 µM (inactive) | GI50 (A498): > 100 µM (inactive) | GI50 (A549): > 100 µM (inactive) | GI50 (ACHN): > 100 µM (inactive) | GI50 (CAKI-1): 53.3 µM (inactive) | GI50 (CCRF-CEM): 64.7 µM (inactive) | GI50 (DLD-1): > 100 µM (inactive) | GI50 (DMS-114): > 100 µM (inactive) | GI50 (DMS-273): > 100 µM (inactive) | GI50 (EKVX): 33.3 µM (inactive) | GI50 (HCC 2998): > 100 µM (inactive) | GI50 (HCT-116): 81.8 µM (inactive) | GI50 (HCT-15): 74 µM | GI50 (HL-60): 15.6 µM (inactive) | GI50 (HOP-18): > 100 µM (inactive) | GI50 (HOP-92): 67.3 µM (inactive) | GI50 (HT-29): > 100 µM (inactive) | GI50 (K562): 51.2 µM (inactive) | GI50 (KM-20L2): > 100 µM (inactive) | GI50 (LOX IMVI): 97.3 µM (inactive) | GI50 (LXFL 529): > 100 µM (inactive) | GI50 (M14): > 100 µM (inactive) | GI50 (M19-MEL): > 100 µM (inactive) | GI50 (MOLT-4): 55.2 µM (inactive) | GI50 (Malme-3M): > 100 µM (inactive) | GI50 (NCI-H226): > 100 µM (inactive) | GI50 (NCI-H23): > 100 µM (inactive) | GI50 (NCI-H460): > 100 µM (inactive) | GI50 (NCI-H522): > 100 µM (inactive) | GI50 (OVCAR-3): > 100 µM (inactive) | GI50 (OVCAR-4): > 100 µM (inactive) | GI50 (OVCAR-5): > 100 µM (inactive) | GI50 (OVCAR-8): > 100 µM (inactive) | GI50 (RPMI-8226): 86.9 µM (inactive) | GI50 (RXF 393): > 100 µM (inactive) | GI50 (RXF 631): > 100 µM (inactive) | GI50 (SF-295): > 100 µM (inactive) | GI50 (SF-539): > 100 µM (inactive) | GI50 (SK-MEL-28): > 100 µM (inactive) | GI50 (SK-MEL-2): > 100 µM (inactive) | GI50 (SK-MEL-5): > 100 µM (inactive) | GI50 (SN12C): > 100 µM (inactive) | GI50 (SNB-19): 59.7 µM (inactive) | GI50 (SNB-75): > 100 µM (inactive) | GI50 (SNB-78): > 100 µM (inactive) | GI50 (SR): 44 µM (inactive) | GI50 (SW-620): > 100 µM (inactive) | GI50 (TK-10): > 100 µM (inactive) | GI50 (U-251): > 100 µM (inactive) | GI50 (UACC-257): > 100 µM (inactive) | GI50 (UACC-62): 40.6 µM (inactive) | GI50 (UO-31): > 100 µM (inactive)

O=C1c2ccccc2C(=O)C1(O)c1c[nH]c2ccccc12
GI50 (786-0): > 100 µM (inactive) | GI50 (A549): > 100 µM (inactive) | GI50 (CAKI-1): > 100 µM (inactive) | GI50 (CCRF-CEM): > 100 µM (inactive) | GI50 (COLO 205): > 100 µM (inactive) | GI50 (DLD-1): > 100 µM (inactive) | GI50 (DMS-114): > 100 µM (inactive) | GI50 (EKVX): > 100 µM (inactive) | GI50 (HCT-116): > 100 µM (inactive) | GI50 (HCT-15): > 100 µM | GI50 (HL-60): > 100 µM (inactive) | GI50 (HOP-62): > 100 µM (inactive) | GI50 (HOP-92): > 100 µM (inactive) | GI50 (HT-29): > 100 µM (inactive) | GI50 (IGROV-1): > 100 µM (inactive) | GI50 (K562): > 100 µM (inactive) | GI50 (KM-20L2): > 100 µM (inactive) | GI50 (KM12): > 100 µM (inactive) | GI50 (LOX IMVI): > 100 µM (inactive) | GI50 (LXFL 529): > 100 µM (inactive) | GI50 (M14): > 100 µM (inactive) | GI50 (M19-MEL): > 100 µM (inactive) | GI50 (MOLT-4): > 100 µM (inactive) | GI50 (Malme-3M): > 100 µM (inactive) | GI50 (NCI-H23): > 100 µM (inactive) | GI50 (NCI-H460): > 100 µM (inactive) | GI50 (NCI-H522): > 100 µM (inactive) | GI50 (OVCAR-3): > 100 µM (inactive) | GI50 (OVCAR-4): > 100 µM (inactive) | GI50 (OVCAR-5): > 100 µM (inactive) | GI50 (OVCAR-8): > 100 µM (inactive) | GI50 (RPMI-8226): > 100 µM (inactive) | GI50 (RXF 631): > 100 µM (inactive) | GI50 (SF-268): > 100 µM (inactive) | GI50 (SF-295): > 100 µM (inactive) | GI50 (SF-539): > 100 µM (inactive) | GI50 (SK-MEL-28): > 100 µM (inactive) | GI50 (SK-MEL-2): > 100 µM (inactive) | GI50 (SK-OV-3): > 100 µM (inactive) | GI50 (SNB-19): > 100 µM (inactive) | GI50 (SNB-75): > 100 µM (inactive) | GI50 (SNB-78): > 100 µM (inactive) | GI50 (SR): > 100 µM (inactive) | GI50 (SW-620): > 100 µM (inactive) | GI50 (TK-10): > 100 µM (inactive) | GI50 (U-251): > 100 µM (inactive) | GI50 (UACC-257): > 100 µM (inactive) | GI50 (UACC-62): > 100 µM (inactive) | GI50 (UO-31): > 100 µM (inactive) | GI50 (XF498): > 100 µM (inactive)
